In the NIST ThermoML archive (doi:10.1021/je500647a):

Experiment: mn = molality of the nth substance listed, in mol/kg
Details: 101 kPa, Liquid, Capillary tube (Ostwald / Ubbelohde) method

OC[C@H]1OC(OC[C@H]2OC(O[C@]3(CO)O[C@H](CO)[C@@H](O)[C@@H]3O)[C@H](O)[C@@H](O)[C@@H]2O)[C@H](O)[C@@H](O)[C@H]1O (stereo partly drawn) [D-(+)-raffinose] + O
viscosity [mPa·s]
Details	m1 = 0.05	m1 = 0.055	m1 = 0.06	m1 = 0.065	m1 = 0.07	m1 = 0.075	m1 = 0.08	m1 = 0.085	m1 = 0.09	m1 = 0.1
293.15 K	1.056	1.061	1.066	1.071	1.079	1.087	1.095	1.101	1.108	1.118
298.15 K	0.9281	0.9343	0.94	0.9448	0.9488	0.9553	0.9597	0.9674	0.9724	0.9824
303.15 K	0.8259	0.8302	0.8349	0.8402	0.8435	0.8485	0.8521	0.8569	0.8631	0.8719
308.15 K	0.7393	0.7424	0.7474	0.7516	0.7547	0.7585	0.7625	0.7663	0.77	0.7775
313.15 K	0.6657	0.6688	0.673	0.6764	0.6792	0.6822	0.6857	0.6881	0.6925	0.698

CC(C)C[C@H](N)C(=O)O [L-leucine] + O
viscosity [mPa·s]
Details	293.15 K	298.15 K	303.15 K	308.15 K	313.15 K
m1 = 0.025	1.02	0.8932	0.7948	0.7187	0.6481
m1 = 0.05	1.022	0.8936	0.8021	0.7237	0.6571
m1 = 0.1	1.026	0.8992	0.8011	0.7223	0.6533

O=C[C@H](O)[C@H](O)[C@H](O)CO [D-ribose] + O
viscosity [mPa·s]
Details	m1 = 0.05	m1 = 0.055	m1 = 0.06	m1 = 0.065	m1 = 0.07	m1 = 0.075	m1 = 0.08	m1 = 0.085	m1 = 0.09	m1 = 0.1
293.15 K	1.019	1.021	1.022	1.024	1.026	1.027	1.029	1.031	1.033	1.035
298.15 K	0.9032	0.9047	0.906	0.9073	0.9085	0.91	0.9114	0.9127	0.9143	0.9168
303.15 K	0.8071	0.8082	0.8092	0.8101	0.8113	0.8125	0.8135	0.8146	0.8157	0.8183
308.15 K	0.7261	0.727	0.7277	0.7286	0.7292	0.7302	0.7313	0.7321	0.7333	0.7353
313.15 K	0.657	0.6576	0.6581	0.6587	0.6595	0.6601	0.6607	0.6616	0.6626	0.6642

NCC(=O)O [2-aminoacetic acid] + O
viscosity [mPa·s]
Details	293.15 K	298.15 K	303.15 K	308.15 K	313.15 K
m1 = 0.025	1.011	0.8923	0.7994	0.7201	0.6549
m1 = 0.05	1.016	0.8947	0.8017	0.7213	0.6563
m1 = 0.1	1.022	0.9011	0.8056	0.7236	0.6582
